This is an account of results in the Kinase Knowledgebase extract (Sharma et al. 2016).

Structures are written as SMILES. pIC50: −log10 of the molar value.

For this test, the target named is EGFR (UniProt P00533). The test is described as follows: Inhibition of EGFR Kinase Activity.
EGFR, sequence (P00533 whole entry, looked up): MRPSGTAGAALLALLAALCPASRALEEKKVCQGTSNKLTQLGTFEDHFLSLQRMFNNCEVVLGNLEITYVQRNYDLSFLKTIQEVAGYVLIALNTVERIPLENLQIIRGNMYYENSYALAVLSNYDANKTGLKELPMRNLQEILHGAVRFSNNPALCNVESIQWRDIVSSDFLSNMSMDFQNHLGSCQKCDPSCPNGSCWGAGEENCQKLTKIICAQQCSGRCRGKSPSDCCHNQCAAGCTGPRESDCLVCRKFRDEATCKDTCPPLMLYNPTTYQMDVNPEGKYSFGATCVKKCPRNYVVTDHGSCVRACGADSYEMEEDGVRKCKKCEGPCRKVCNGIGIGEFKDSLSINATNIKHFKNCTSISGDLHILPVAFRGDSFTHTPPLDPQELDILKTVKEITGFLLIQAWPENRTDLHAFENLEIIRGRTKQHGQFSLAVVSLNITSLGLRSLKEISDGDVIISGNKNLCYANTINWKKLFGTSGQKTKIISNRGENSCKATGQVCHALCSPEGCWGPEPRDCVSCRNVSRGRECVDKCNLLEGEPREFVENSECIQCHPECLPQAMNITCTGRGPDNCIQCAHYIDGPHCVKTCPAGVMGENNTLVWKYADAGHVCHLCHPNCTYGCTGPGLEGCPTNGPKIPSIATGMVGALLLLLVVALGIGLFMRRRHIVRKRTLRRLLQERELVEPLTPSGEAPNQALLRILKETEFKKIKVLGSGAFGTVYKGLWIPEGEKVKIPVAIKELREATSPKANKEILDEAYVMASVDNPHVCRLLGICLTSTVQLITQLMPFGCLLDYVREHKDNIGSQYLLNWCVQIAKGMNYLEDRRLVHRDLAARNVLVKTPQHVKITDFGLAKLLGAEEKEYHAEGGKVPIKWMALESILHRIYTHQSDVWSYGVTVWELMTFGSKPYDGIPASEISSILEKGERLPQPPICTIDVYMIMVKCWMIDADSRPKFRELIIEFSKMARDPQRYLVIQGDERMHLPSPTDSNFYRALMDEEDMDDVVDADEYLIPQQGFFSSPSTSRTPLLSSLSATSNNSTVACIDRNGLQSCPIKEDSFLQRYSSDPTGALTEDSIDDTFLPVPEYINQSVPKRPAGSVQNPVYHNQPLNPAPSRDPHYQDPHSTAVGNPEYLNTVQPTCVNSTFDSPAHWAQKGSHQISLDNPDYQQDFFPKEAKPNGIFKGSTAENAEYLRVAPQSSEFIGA
For `C=CC(=O)Nc1cccc(Nc2ncnc(NN3CCCc4ccc(Cl)cc43)n2)c1`, the pIC50 (usually the negative decadic logarithm of the IC50, by convention in mol/L) is above 4.30.

In the case of `C=CC(=O)Nc1cc(Nc2ncnc(N(C)c3ccc4c(ccn4Cc4ccccc4)c3)n2)ccc1OCCCC1CCN(C)CC1`, the pIC50 is above 4.30.

The molecule `C=CC(=O)Nc1cccc(Nc2ncnc(Nc3cccc(C)c3)n2)c1` showed a pIC50 above 4.30.

The molecule `C=CCN(c1cccc(CC(=O)OC)c1)c1ncnc(Nc2cccc(NC(=O)C=C)c2)n1` showed a pIC50 above 4.30.

Regarding `C=CC(=O)Nc1cccc(Nc2ncnc(N(CC)n3c(=O)[nH]c4ccccc43)n2)c1`, the pIC50 was above 4.30.

Take `C=CCN(c1ccc(OCC)c(OCC)c1)c1ncnc(Nc2cccc(NC(=O)C=C)c2)n1`: the pIC50 was above 4.30.

`C=CC(=O)Nc1ccc(Nc2ncnc(Nc3ccc4c(cnn4Cc4ccccc4)c3)n2)cc1` gave a pIC50 above 4.30.

`C=CCN(c1ncnc(Nc2ccc(NC(=O)C=C)cc2)n1)n1c(=O)n(C(=O)C(C)(C)C)c2ccccc21`: the pIC50 is above 4.30.

`C=CC(=O)N(CCCN1CCOCC1)c1cccc(Nc2ncnc(Nc3cccc(Cl)c3)n2)c1` showed a pIC50 above 4.30.

Consider `C=CC(=O)Nc1ccc(Nc2ncnc(N(C)c3ccc(OCc4ccccc4)c(Cl)c3)n2)cc1`, for which the pIC50 was above 4.30.

In turn, `C=CCN(c1ncnc(Nc2cccc(NC(=O)C=C)c2)n1)c1cccc2ccccc12` gave a pIC50 above 4.30.

As to `C=CC(=O)Nc1cccc(Nc2ncnc(N(C)c3ccc4c(cnn4Cc4ccccn4)c3)n2)c1`, the pIC50 was above 4.30.

As to `CC#CC(=O)Nc1cccc(Nc2ncnc(N(C)c3ccc(OCc4ccccc4)c(Cl)c3)n2)c1`, the pIC50 was above 4.30.

Turning to `CCN(c1ccc2NN(=Cc2c1)Cc3ccccn3)c4ncnc(Nc5cccc(NC(=O)C=C)c5)n4`, the negative-log IC50 (pIC50) was above 4.30.

The molecule `C=CCN(c1ncnc(Nc2cccc(NC(=O)C=C)c2)n1)c1cc(Cl)ccc1C` showed a pIC50 above 4.30.

With `CC#CC(=O)Nc1cccc(Nc2ncnc(N(C)c3ccc(OCCC)c(OCCC)c3)n2)c1`, the pIC50 is above 4.30.

On to `CC#CC(=O)Nc1cccc(Nc2ncnc(N(CC)c3ccc(F)c(Cl)c3)n2)c1`, for which the pIC50 was above 4.30.

`C=CC(=O)Nc1cc(Nc2ncnc(N(C)c3ccc4c(ccn4Cc4ccccc4)c3)n2)ccc1OCCCN1CCOCC1` gave a pIC50 above 4.30.

As for `CC#CC(=O)Nc1cccc(Nc2ncnc(N(CC)c3ccc(OCCOC)c(OC)c3)n2)c1`, the pIC50 was above 4.30.

In turn, `C=CCN(c1ccc(OC)c(OC)c1)c1ncnc(Nc2cccc(NC(=O)C=C)c2)n1` showed a pIC50 above 4.30.

In turn, `C=CCN(c1ccc(OCc2ccccc2)cc1)c1ncnc(Nc2ccc(NC(=O)C=C)cc2)n1` had a pIC50 above 4.30.

`C=CC(=O)Nc1ccc(Nc2ncnc(N(CC)n3c(=O)[nH]c4ccccc43)n2)cc1` showed a pIC50 above 4.30.

As for `C#CCC(=O)Nc1cccc(Nc2ncnc(NN3CCCc4cc(C)ccc43)n2)c1`, the pIC50 is above 4.30.

`C=CC(=O)N(CCCN1CCOCC1)c1cccc(Nc2ncnc(Nc3cccc(C)c3)n2)c1` gave a pIC50 above 4.30.

`CC#CC(=O)Nc1cccc(Nc2ncnc(N(C)c3cccc(Cl)c3)n2)c1` showed a pIC50 above 4.30.

On to `C/C=C/C(=O)Nc1cccc(Nc2ncnc(Nc3ccc4c(ccn4Cc4ccccc4)c3)n2)c1`, for which the pIC50 is above 4.30.

`C=CC(=O)Nc1cc(Nc2ncnc(N(C)c3cccc(Cl)c3)n2)ccc1OCCCC1CCN(C)CC1` had a pIC50 above 4.30.

As for `C=CC(=O)Nc1cccc(Nc2ncnc(N(C)c3ccc(OCCC)c(OCCC)c3)n2)c1`, the pIC50 was above 4.30.

`C=CC(=O)Nc1cc(Nc2ncnc(N(C)c3ccc(OCc4ccccc4)c(Cl)c3)n2)ccc1OCCCN1CCOCC1` had a pIC50 above 4.30.

`CC#CC(=O)Nc1cccc(Nc2ncnc(Nc3ccc(OCCO)cc3)n2)c1` had a pIC50 above 4.30.

In turn, `C=CC(=O)Nc1cccc(Nc2ncnc(N(C)c3ccc(OC)c(OCCOC)c3)n2)c1` gave a pIC50 above 4.30.

In the case of `CC#CC(=O)Nc1cccc(Nc2ncnc(N(C)c3cccc(C(N)=O)c3)n2)c1`, the pIC50 was above 4.30.

For `C=CC(=O)Nc1cccc(Nc2ncnc(N(C)c3cccc(Cl)c3)n2)c1`, the pIC50 is above 4.30.

The molecule `C=CC(=O)Nc1cccc(Nc2ncnc(NN3CCCc4ccc(C(F)(F)F)cc43)n2)c1` showed a pIC50 above 4.30.

In turn, `C=CC(=O)Nc1ccc(Nc2ncnc(N(C)c3ccc4c(cnn4Cc4ccccc4)c3)n2)cc1` had a pIC50 above 4.30.

`C=CC(=O)N(CCCN1CCOCC1)c1cccc(Nc2ncnc(Nc3ccc(OCCO)cc3)n2)c1` gave a pIC50 above 4.30.

Turning to `C=CCN(c1ccc(OCCOC)c(OC)c1)c1ncnc(Nc2cccc(NC(=O)C=C)c2)n1`, the pIC50 is above 4.30.

Turning to `C=CC(=O)Nc1cc(Nc2ncnc(N(C)c3ccc4c(cnn4Cc4ccccc4)c3)n2)ccc1OC`, the pIC50 is above 4.30.

Regarding `C#CCC(=O)Nc1cccc(Nc2ncnc(NN3CCCc4cc(OC)ccc43)n2)c1`, the pIC50 is above 4.30.

`C=CC(=O)Nc1ccc(Nc2ncnc(N(C)n3c(=O)[nH]c4ccccc43)n2)cc1` gave a pIC50 above 4.30.

`C=CC(=O)Nc1cccc(Nc2ncnc(N(CC)c3cc(OC)c(OC)c(OCCN4CCOCC4)c3)n2)c1` had a pIC50 above 4.30.

Consider `C=CC(=O)Nc1ccc(Nc2ncnc(Nc3ccc(OCc4ccccc4)c(Cl)c3)n2)cc1`, for which the pIC50 was above 4.30.

Regarding `CC#CC(=O)Nc1cccc(Nc2ncnc(N(C)n3c(=O)n(C(=O)C(C)(C)C)c4ccccc43)n2)c1`, the pIC50 was above 4.30.

The molecule `C=CC(=O)Nc1cccc(Nc2ncnc(Nc3cccc4ccccc34)n2)c1` gave a pIC50 above 4.30.

Molecule `C=CC(=O)Nc1ccc(Nc2ncnc(Nc3cc(Cl)ccc3C)n2)cc1` had a pIC50 above 4.30.

For the molecule `C#Cc1cccc(Nc2ncnc(Nc3cccc(NC(=O)C=C)c3)n2)c1`, the pIC50 is above 4.30.

`C=CC(=O)Nc1cccc(Nc2ncnc(N(C)n3c(=O)[nH]c4ccccc43)n2)c1` showed a negative-log IC50 (pIC50) above 4.30.

As for `CC#CC(=O)Nc1cc(Nc2ncnc(Nc3ccc4c(ccn4Cc4ccccc4)c3)n2)ccc1OCCCC1CCN(C)CC1`, the pIC50 was above 4.30.

Turning to `CC#CC(=O)Nc1cc(Nc2ncnc(N(C)c3ccc4c(cnn4Cc4ccccc4)c3)n2)ccc1OC`, the pIC50 was above 4.30.

Regarding `CC#CC(=O)Nc1cc(Nc2ncnc(Nc3ccc4c(cnn4Cc4ccccc4)c3)n2)ccc1OCCCC1CCN(C)CC1`, the pIC50 is above 4.30.

`C=CCN(c1ncnc(Nc2cccc(NC(=O)C=C)c2)n1)n1c(=O)n(C(=O)C(C)(C)C)c2ccccc21`: the pIC50 is above 4.30.

Take `C=CCN(c1ncnc(Nc2ccc(NC(=O)C=C)cc2)n1)n1c(=O)[nH]c2ccccc21`: the pIC50 is above 4.30.

Turning to `C=CC(=O)Nc1cccc(Nc2ncnc(N(C)c3ccc(OCCOC)c(OC)c3)n2)c1`, the pIC50 was above 4.30.

As to `C=CCN(c1ccc(C(=O)OC)cc1)c1ncnc(Nc2ccc(NC(=O)C=C)cc2)n1`, the pIC50 is above 4.30.

As to `C=CC(=O)Nc1ccc(Nc2ncnc(N(C)c3ccc(OCCC)c(OCCC)c3)n2)cc1`, the pIC50 was above 4.30.

`CC#CC(=O)Nc1cc(Nc2ncnc(Nc3ccc4c(ccn4Cc4ccccc4)c3)n2)ccc1OCCCN1CCOCC1`: the pIC50 was above 4.30.

For the molecule `CC#CC(=O)Nc1cccc(Nc2ncnc(N(C)c3cccc(S(=O)(=O)c4ccc([N+](=O)[O-])cc4)c3)n2)c1`, the pIC50 is above 4.30.

Regarding `CC#CC(=O)Nc1cccc(Nc2ncnc(N(C)c3ccc4c(ccn4Cc4ccccc4)c3)n2)c1`, the pIC50 was above 4.30.

For the molecule `C=CCN(c1ccc(C(=O)OC)cc1)c1ncnc(Nc2cccc(NC(=O)C#CC)c2)n1`, the pIC50 is above 4.30.

`C=CC(=O)Nc1ccc(Nc2ncnc(Nc3ccc(F)c(Cl)c3)n2)cc1` showed a pIC50 above 4.30.

In turn, `C=CCN(c1ccc(OC)c(OC)c1)c1ncnc(Nc2cccc(NC(=O)C#CC)c2)n1` showed a pIC50 above 4.30.

Take `C=CC(=O)Nc1cccc(Nc2ncnc(N(CC)c3ccc(OCCOC)c(OC)c3)n2)c1`: the pIC50 was above 4.30.

In the case of `C=CC(=O)Nc1cccc(Nc2ncnc(N(C)c3cccc(CC(=O)OC)c3)n2)c1`, the pIC50 was above 4.30.

`C=CC(=O)Nc1ccc(Nc2ncnc(N(C)c3ccc(OC)c(OC)c3)n2)cc1` gave a pIC50 above 4.30.

Molecule `CC#CC(=O)Nc1cccc(Nc2ncnc(Nc3cc(Cl)ccc3C)n2)c1` had a pIC50 above 4.30.

The molecule `CC#CC(=O)Nc1cccc(Nc2ncnc(Nn3c(=O)[nH]c4ccccc43)n2)c1` had a pIC50 above 4.30.

Turning to `C=CC(=O)Nc1cccc(Nc2ncnc(Nc3ccc4c(cnn4Cc4ccccc4)c3)n2)c1`, the pIC50 was above 4.30.

Molecule `CC#CC(=O)Nc1cccc(Nc2ncnc(Nc3ccc(OC)c(OC)c3)n2)c1` gave a pIC50 above 4.30.

Turning to `C=CC(=O)N(OCCCN1CCOCC1)c1cccc(Nc2ncnc(NN3CCCc4ccc(Cl)cc43)n2)c1`, the pIC50 was above 4.30.

In the case of `CC#CC(=O)Nc1cccc(Nc2ncnc(Nn3c(=O)n(C(=O)C(C)(C)C)c4ccccc43)n2)c1`, the pIC50 is above 4.30.

The molecule `C=CC(=O)Nc1cccc(Nc2ncnc(N(C)c3ccc(OCc4ccccc4)c(Cl)c3)n2)c1` showed a pIC50 above 4.30.

Molecule `C=CC(=O)Nc1cccc(Nc2ncnc(Nc3ccc(F)c(Cl)c3)n2)c1` gave a pIC50 above 4.30.

The molecule `C=CC(=O)Nc1cccc(Nc2ncnc(NN3CCCc4c(Cl)cccc43)n2)c1` showed a negative-log IC50 (pIC50) above 4.30.

As to `CC#CC(=O)Nc1cccc(Nc2ncnc(N(CC)n3c(=O)[nH]c4ccccc43)n2)c1`, the pIC50 is above 4.30.

In the case of `C=CC(=O)Nc1ccc(Nc2ncnc(N(CC)c3ccc(C(=O)OC)cc3)n2)cc1`, the pIC50 is above 4.30.

Molecule `C=CC(=O)Nc1cccc(Nc2ncnc(N(CC)c3ccc(C(=O)OC)cc3)n2)c1` gave a pIC50 above 4.30.

In the case of `CC#CC(=O)Nc1cccc(Nc2ncnc(N(C)c3ccc(OCCOC)c(OC)c3)n2)c1`, the pIC50 is above 4.30.

`CC#CC(=O)Nc1cc(Nc2ncnc(N(C)c3ccc4c(ccn4Cc4ccccc4)c3)n2)ccc1OCCCN1CCOCC1` showed a pIC50 above 4.30.

For the molecule `CC#CC(=O)Nc1cc(Nc2ncnc(Nc3ccc4c(cnn4Cc4ccccc4)c3)n2)ccc1OCCCN1CCOCC1`, the pIC50 was above 4.30.

As to `C=CC(=O)Nc1ccc(Nc2ncnc(Nc3cc(OC)c(OC)c(OC)c3)n2)cc1`, the pIC50 was above 4.30.

`C=CCN(c1ccc(C(=O)OC)cc1)c1ncnc(Nc2cccc(NC(=O)C=C)c2)n1` had a pIC50 above 4.30.

Molecule `C=CC(=O)Nc1cccc(Nc2ncnc(Nc3ccc(OCc4ccccc4)c(Cl)c3)n2)c1` gave a pIC50 above 4.30.

`C=CC(=O)N1CCc2ccc(Nc3ncnc(Nc4ccc5c(cnn5Cc5ccccc5)c4)n3)cc21`: the pIC50 was above 4.30.

`C=CC(=O)Nc1ccc(Nc2ncnc(Nc3cc(Cl)cc4ccccc34)n2)cc1` had a pIC50 above 4.30.
